Experimental data reported in the NIST ThermoML archive (doi:10.1021/acs.jced.6b00455).

Test: mn = molality of the nth substance listed, in mol/kg
Details: 101 kPa, Liquid, Alternating current cell with electrodes

C[N+](C)(C)CCO.O=C([O-])C(F)(F)C(F)(F)C(F)(F)C(F)(F)C(F)(F)C(F)(F)C(F)(F)F [(2-hydroxyethyl)trimethylammonium perfluorooctanoate] + O
Details	electrical conductivity [S/m]
293.15 K, m1 = 7.6e-05	0.0005
293.15 K, m1 = 0.000243	0.0015
293.15 K, m1 = 0.000338	0.0021
293.15 K, m1 = 0.000489	0.0031
293.15 K, m1 = 0.000626	0.0039
293.15 K, m1 = 0.000747	0.0046
293.15 K, m1 = 0.000847	0.0053
293.15 K, m1 = 0.000968	0.0061
293.15 K, m1 = 0.001108	0.007
293.15 K, m1 = 0.001301	0.008
293.15 K, m1 = 0.001463	0.0091
293.15 K, m1 = 0.001591	0.0098
293.15 K, m1 = 0.001689	0.0106
293.15 K, m1 = 0.00186	0.0114
293.15 K, m1 = 0.001996	0.0123
293.15 K, m1 = 0.002117	0.0129
293.15 K, m1 = 0.00224	0.0138
293.15 K, m1 = 0.002376	0.0145
293.15 K, m1 = 0.002497	0.0153
293.15 K, m1 = 0.00262	0.016
293.15 K, m1 = 0.002737	0.0167
293.15 K, m1 = 0.002945	0.018
293.15 K, m1 = 0.00309	0.0188
293.15 K, m1 = 0.003212	0.0196
293.15 K, m1 = 0.003363	0.0202
293.15 K, m1 = 0.003476	0.0208
293.15 K, m1 = 0.003596	0.0216
293.15 K, m1 = 0.003714	0.0222
298.15 K, m1 = 6.2e-05	0.0004
298.15 K, m1 = 0.000138	0.0009
298.15 K, m1 = 0.00019	0.0013
298.15 K, m1 = 0.000258	0.0018
298.15 K, m1 = 0.000317	0.0022
298.15 K, m1 = 0.000375	0.0026
298.15 K, m1 = 0.000432	0.003
298.15 K, m1 = 0.000488	0.0034
298.15 K, m1 = 0.000547	0.0038
298.15 K, m1 = 0.000619	0.0044
298.15 K, m1 = 0.000704	0.0049
298.15 K, m1 = 0.00077	0.0054
298.15 K, m1 = 0.000828	0.006
298.15 K, m1 = 0.00091	0.0066
298.15 K, m1 = 0.000999	0.0072
298.15 K, m1 = 0.001085	0.0078
298.15 K, m1 = 0.001174	0.0084
298.15 K, m1 = 0.001268	0.009
298.15 K, m1 = 0.001353	0.0096
298.15 K, m1 = 0.001452	0.0102
298.15 K, m1 = 0.001544	0.0109
298.15 K, m1 = 0.001654	0.0115
298.15 K, m1 = 0.001755	0.0119
298.15 K, m1 = 0.00185	0.0125
298.15 K, m1 = 0.001933	0.013
298.15 K, m1 = 0.002054	0.0138
298.15 K, m1 = 0.002177	0.0146
298.15 K, m1 = 0.002284	0.0152
298.15 K, m1 = 0.00241	0.016
298.15 K, m1 = 0.002525	0.0167
298.15 K, m1 = 0.002643	0.0174
298.15 K, m1 = 0.002738	0.018
298.15 K, m1 = 0.002963	0.0194
298.15 K, m1 = 0.003158	0.0205
298.15 K, m1 = 0.003285	0.0213
298.15 K, m1 = 0.003418	0.0221
298.15 K, m1 = 0.003542	0.0228
298.15 K, m1 = 0.00364	0.0234
298.15 K, m1 = 0.003768	0.0242
298.15 K, m1 = 0.003952	0.0253
298.15 K, m1 = 0.004493	0.0287
298.15 K, m1 = 0.005611	0.0355
298.15 K, m1 = 0.006271	0.0391
298.15 K, m1 = 0.006873	0.0424
298.15 K, m1 = 0.007507	0.0463
303.15 K, m1 = 6.9e-05	0.0006
303.15 K, m1 = 0.000173	0.0013
303.15 K, m1 = 0.000265	0.002
303.15 K, m1 = 0.000396	0.0031
303.15 K, m1 = 0.000504	0.0039
303.15 K, m1 = 0.000614	0.0048
303.15 K, m1 = 0.000711	0.0055
303.15 K, m1 = 0.000794	0.0061
303.15 K, m1 = 0.000992	0.0077
303.15 K, m1 = 0.001091	0.0084
303.15 K, m1 = 0.001177	0.0091
303.15 K, m1 = 0.00129	0.0099
303.15 K, m1 = 0.001381	0.0105
303.15 K, m1 = 0.001497	0.0113
303.15 K, m1 = 0.001589	0.012
303.15 K, m1 = 0.001698	0.0128
303.15 K, m1 = 0.002339	0.0176
303.15 K, m1 = 0.002615	0.0196
303.15 K, m1 = 0.002737	0.0204
303.15 K, m1 = 0.002834	0.021
303.15 K, m1 = 0.002921	0.0216
303.15 K, m1 = 0.003011	0.0222
303.15 K, m1 = 0.003103	0.0229
303.15 K, m1 = 0.003204	0.0237
303.15 K, m1 = 0.003323	0.0244
303.15 K, m1 = 0.003408	0.025
303.15 K, m1 = 0.003487	0.0256
303.15 K, m1 = 0.003599	0.0264
303.15 K, m1 = 0.003701	0.0271
303.15 K, m1 = 0.003815	0.0279
303.15 K, m1 = 0.003911	0.0285
303.15 K, m1 = 0.004027	0.0293
303.15 K, m1 = 0.004122	0.03
303.15 K, m1 = 0.004288	0.0311
303.15 K, m1 = 0.004393	0.0318
303.15 K, m1 = 0.004492	0.0325
303.15 K, m1 = 0.004585	0.0331
303.15 K, m1 = 0.004679	0.0337
303.15 K, m1 = 0.004785	0.0345
308.15 K, m1 = 6.9e-05	0.0006
308.15 K, m1 = 0.000131	0.0012
308.15 K, m1 = 0.000188	0.0016
308.15 K, m1 = 0.000233	0.002
308.15 K, m1 = 0.000278	0.0024
308.15 K, m1 = 0.000329	0.0029
308.15 K, m1 = 0.000372	0.0032
308.15 K, m1 = 0.000407	0.0035
308.15 K, m1 = 0.000451	0.0039
308.15 K, m1 = 0.000486	0.0043
308.15 K, m1 = 0.000545	0.0048
308.15 K, m1 = 0.000576	0.0051
308.15 K, m1 = 0.000628	0.0055
308.15 K, m1 = 0.000669	0.0059
308.15 K, m1 = 0.000706	0.0062
308.15 K, m1 = 0.000758	0.0067
308.15 K, m1 = 0.000796	0.007
308.15 K, m1 = 0.000831	0.0073
308.15 K, m1 = 0.000864	0.0076
308.15 K, m1 = 0.0009	0.0079
308.15 K, m1 = 0.000934	0.0082
308.15 K, m1 = 0.000981	0.0087
308.15 K, m1 = 0.001026	0.0091
308.15 K, m1 = 0.00106	0.0094
308.15 K, m1 = 0.001098	0.0097
308.15 K, m1 = 0.001138	0.0101
308.15 K, m1 = 0.001211	0.0107
308.15 K, m1 = 0.001265	0.0112
308.15 K, m1 = 0.001299	0.0114
308.15 K, m1 = 0.001362	0.012
308.15 K, m1 = 0.001397	0.0123
308.15 K, m1 = 0.001445	0.0127
308.15 K, m1 = 0.0015	0.0132
308.15 K, m1 = 0.001539	0.0136
308.15 K, m1 = 0.001701	0.015
308.15 K, m1 = 0.001808	0.0159
308.15 K, m1 = 0.001958	0.0173
308.15 K, m1 = 0.002148	0.0189
308.15 K, m1 = 0.002371	0.0209
308.15 K, m1 = 0.0025	0.022
308.15 K, m1 = 0.002602	0.0229
308.15 K, m1 = 0.002723	0.0239
308.15 K, m1 = 0.00288	0.0253
308.15 K, m1 = 0.003015	0.0265
308.15 K, m1 = 0.003126	0.0274
308.15 K, m1 = 0.00328	0.0287
308.15 K, m1 = 0.003401	0.0297
308.15 K, m1 = 0.003526	0.0308
308.15 K, m1 = 0.003657	0.0319
308.15 K, m1 = 0.003764	0.0328
308.15 K, m1 = 0.003883	0.0337
308.15 K, m1 = 0.003991	0.0346
308.15 K, m1 = 0.004106	0.0356
308.15 K, m1 = 0.00422	0.0365
308.15 K, m1 = 0.004341	0.0375
308.15 K, m1 = 0.004478	0.0386
308.15 K, m1 = 0.004597	0.0396
308.15 K, m1 = 0.004723	0.0405
313.15 K, m1 = 0.000143	0.0013
313.15 K, m1 = 0.000274	0.0026
313.15 K, m1 = 0.000394	0.0038
313.15 K, m1 = 0.000543	0.005
313.15 K, m1 = 0.00064	0.006
313.15 K, m1 = 0.000773	0.0073
313.15 K, m1 = 0.000904	0.0087
313.15 K, m1 = 0.001044	0.0101
313.15 K, m1 = 0.001221	0.012
313.15 K, m1 = 0.001372	0.0134
313.15 K, m1 = 0.001554	0.0149
313.15 K, m1 = 0.001697	0.0164
313.15 K, m1 = 0.001835	0.0178
313.15 K, m1 = 0.002088	0.02
313.15 K, m1 = 0.002327	0.0222
313.15 K, m1 = 0.002528	0.0242
313.15 K, m1 = 0.002879	0.0274
313.15 K, m1 = 0.003226	0.0306
313.15 K, m1 = 0.003438	0.0318
313.15 K, m1 = 0.003602	0.0333
313.15 K, m1 = 0.003774	0.035
313.15 K, m1 = 0.004014	0.037
313.15 K, m1 = 0.00417	0.0382
313.15 K, m1 = 0.004352	0.0397
313.15 K, m1 = 0.004528	0.0415
313.15 K, m1 = 0.004708	0.043
313.15 K, m1 = 0.004876	0.0446
313.15 K, m1 = 0.005072	0.0463
313.15 K, m1 = 0.005237	0.0477
